Test results from patent publication US20260146041A1, “PANNEXIN-1 MODULATORS AND METHODS OF TREATING DISORDERS IN WHICH PANNEXIN-1 IS IMPLICATED” (Pannex Therapeutics Inc., priority 2022, published 2026).
Each block holds one molecule with its values, some of them ahead of it.

Columns and labels:
[1] = system: microglial cells; assay: LPS-stimulated ATP release by microglial cells; assay type: cell-based, rat; conditions: 5 or 50 μM, LPS stimulation, FIG. 15B
Experimental: (§1) Cortical microglia/astrocytes mechanically dissociated from decapitated postnatal P2-P4 rat pups (CD strain) were seeded on P75 flasks (1 brain per flask) and cultured at 37° C., 5% CO2 for 10-20 days using DMEM media supplemented with 10% FBS and 1% pen/strep. On Day 10, microglia were collected by gently shaking and washing and purify by passing through 20 μm cell strainer and centrifugation.
(§2) Re-suspended microglia were counted and plated onto poly-D-lysine coated 96-well culture plate at a density of 80,000 cells/well. Dislodged the remaining astrocytes (enriched astrocytes) and plated onto poly-D-lysine coated 96-well culture plate at a density of 50,000 cells/well. Overnighted microglia and/or astrocytes were treated with the PANX-1 blockers of the invention (5 or 50 μM), vehicle or control (carbenoxolone, CBX) and subjected to lipopolysaccharide stimulation. Extracellular ATP was assessed by multilabel plate reader Envision (ultrasensitive luminescence) using CellTiter-Glo (Promega) kit.

[2] = system: astrocytes; assay: LPS-stimulated ATP release by astrocytes; assay type: cell-based, rat; conditions: 5 or 50 μM, LPS stimulation, FIG. 15A
Experimental: as §1, §2

[3] = biological target: T1, human PANX1 channels (Homo sapiens, UniProt Q96RD7); assay: Whole cell patch clamp assessment of PANX1 blockade on HEK293 cells stably expressing human PANX1 channels; assay type: cell-based; conditions: n=3
T1 construct: expressed in transfected cells; host or cells: HEK293
T1 sequence (Q96RD7 whole entry): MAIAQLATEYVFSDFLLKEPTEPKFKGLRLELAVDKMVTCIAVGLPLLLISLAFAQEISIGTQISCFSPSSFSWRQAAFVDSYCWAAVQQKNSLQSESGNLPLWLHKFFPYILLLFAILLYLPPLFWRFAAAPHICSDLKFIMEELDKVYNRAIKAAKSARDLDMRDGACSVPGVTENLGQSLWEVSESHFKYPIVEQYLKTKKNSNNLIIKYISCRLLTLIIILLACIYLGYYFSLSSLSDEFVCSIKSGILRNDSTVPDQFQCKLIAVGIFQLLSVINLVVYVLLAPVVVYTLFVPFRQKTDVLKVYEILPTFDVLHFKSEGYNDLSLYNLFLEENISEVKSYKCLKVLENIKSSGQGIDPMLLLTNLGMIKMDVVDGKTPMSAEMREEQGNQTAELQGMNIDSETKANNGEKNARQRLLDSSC
Experimental: The assessment of PANX1 blockade was assessed on HEK293 cells stably expressing human PANX1 channels, as previously described by Xu et al (2012). Briefly, wild type cells were seeded in six-well plates and 12-16 hours later, 60-70% confluent cells were transfected with the plasmid encoding hPANX1 using calcium phosphate. After 48 hours post-transfection, geneticin (G418), 0.8 mg/ml in fresh medium, was added to the cells to select for transfected clones and the medium was changed every other day. Once confluent, cells were transferred into flasks and maintained in medium containing G418 (0.8 mg/ml) for a total of 4 weeks from the transfection date.
To validate those cells as a tool to screen potential PANX1 inhibitors a number of known PANX1 inhibitors were assessed by whole cell patch clamp and the voltage/current diagrams compared to current literature. The pipette solution was 151 mM […], 10 mM HEPES, 10 mM EGTA, 3 mM MgCl2. Cells were maintained in normal extracellular solution (NES: 140 mM NaCl, 5 mM KCl, 2 mM CaCl2, 1 mM MgCl2, 10 mM D-glucose, 10 mM HEPES, pH 7.3). Voltage ramps of 1 s duration between −80 mV and +80 mV were applied at 5 s intervals. Opening of Panx1 channel was induced by hypotonic shock, by replacing the isotonic extracellular solution (310 mOsml/l) with hypotonic extracellular solution (198 mOsml/l).

[4] = system: human cortical brain tissue slices; conditions: cited from earlier work
[5] = system: mice; conditions: administered before naloxone; cited from earlier work
[6] = system: Tg mice; conditions: AD model, acute inhibition; cited from earlier work
[7] = system: mice; conditions: EAE MS model in mice; cited from earlier work
[8] = system: mice; conditions: acute; cited from earlier work
[9] = system: CRC cells; conditions: cited from earlier work

SMILES: CC1CCCC(n2cnc3c(N4CCCC4C)ncnc32)O1 (stereo not shown) [CMPD019]
release of ATP by microglial cells [1]: prevented | release of ATP by astrocytes [2]: prevented

SMILES: O=C(O)c1ccc2c(c1)c(C(=O)O)cn2CCCc1ccccc1 [CMPD043]
release of ATP by microglial cells [1]: prevented | release of ATP by astrocytes [2]: prevented

SMILES: O=C(O)c1ccn2c(n1)nc1ccc(Cl)cc12 [CMPD054]
release of ATP by microglial cells [1]: prevented | release of ATP by astrocytes [2]: prevented

SMILES: N[C@@H]1[C@H]2CN(c3nc4c(cc3F)c(=O)c(C(=O)O)cn4-c3cc(-c4nnn[nH]4)ccc3Cl)C[C@@H]12 [CMPD 053]
release of ATP by microglial cells [1]: prevented | release of ATP by astrocytes [2]: prevented

inhibitory effect on PANX1 ([3]; at 50 μM): inhibitory effect
SMILES: CC1(C)[C@@H](OC(=O)CCC(=O)O)CC[C@]2(C)[C@H]3C(=O)C=C4[C@@H]5C[C@@](C)(C(=O)O)CC[C@]5(C)CC[C@@]4(C)[C@]3(C)CC[C@@H]12 [Carbenoxolone]

SMILES: CCCN(CCC)S(=O)(=O)c1ccc(C(=O)O)cc1 [Probenecid]
ictal discharges [4]: blocked ictal discharges | withdrawal behaviours [5]: markedly reduced | excitatory synaptic defects [6]: significantly reduced excitatory synaptic defects | clinical symptoms (disease score) [7]: reduced clinical symptoms

inhibitory effect on PANX1 ([3]; at 3, 10, or 30 μM): inhibitory effect
SMILES: CC(=O)S[C@@H]1CC2=CC(=O)CC[C@]2(C)[C@H]2CC[C@@]3(C)[C@@H](CC[C@@]34CCC(=O)O4)[C@H]12 [Spirolactone, Spironolactone]
blood pressure [8]: acutely lowers blood pressure

SMILES: OC(c1cc(C(F)(F)F)nc2c(C(F)(F)F)cccc12)C1CCCCN1 (stereo not shown) [mefloquine]
ictal discharges [4]: blocked ictal discharges | withdrawal behaviours [5]: markedly reduced | growth arrest and apoptosis of CRC cells ([9]; CRC cells harboring phosphorylated p65, in culture and in mice): induced growth arrest and apoptosis | NF-κB inhibition ([9]; colorectal cancer cells): NF-κB inhibitor
